Source: publication PMC3951225, “Cytotoxic Sesquiterpene Lactones from Kauna lasiophthalma Griseb” (Scientia Pharmaceutica, 2014)
“Also recorded” adds a separate entry of the source.

Tests used:
Type in all cases: cell-based, human
[1] = test system: JIMT-1 cells; test: MTT cytotoxicity dose-response assay, JIMT-1; conditions: 72 h treatment, a/b/c = one, two, three or more dose-response curves
Description: (§1) The L56Br-C1 cell line was established at the Department of Oncology, Clinical Sciences, Lund University, Sweden. The JIMT-1 cell line was purchased from the German Collection of Microorganisms and Cell Cultures (Braunschweig, Germany) and the MCF-7, SK-BR-3, HCC1937, and MCF-10A cells were obtained from the American Tissue Type Culture Collection (Manassas, VA, USA). The cell lines were cultured as monolayers at 37°C in a humidified incubator with 5% CO2 in air. The MCF-10A cells have a population doubling time of 15 hours, the JIMT-1 cells 24 hours, and the other four cell lines around 35 hours.
(§2) The L56Br-C1, MCF-7, SK-BR-3, and HCC1937 cells were cultured as described by Holst et al. JIMT-1 cells were cultured in DMEM/Ham’s F12 medium supplemented with 10% fetal calf serum, non-essential amino acids (1 mM), insulin (10 μg/ml), penicillin (100 U/ml), and streptomycin (100 μg/ml). MCF-10A cells were maintained in RPMI 1640 medium supplemented with 10% heat-inactivated fetal calf serum, non-essential amino acids (1 mM), insulin (10 μg/ml), epidermal growth factor (20 ng/ml), cholera toxin (50 ng/ml), hydrocortisone (250 ng/ml), penicillin (100 U/ml), and streptomycin (100 μg/ml). The MCF-10A and JIMT-1 cell lines were sub-cultured twice a week, while the L56Br-C1, MCF-7, SK-BR-3, and HCC1937 cells were sub-cultured once a week with an additional change of growth medium once a week.
(§3) Stock solutions ([…]) of the compounds were made in 100% DMSO. These were further diluted in PBS to obtain the correct concentrations used for the MTT assay. Appropriate DMSO controls were used. In general, the highest DMSO concentration was 0.1%, however, when treating with 100 μM and starting from a […] in 100% DMSO, a final concentration of 1% DMSO was used as the control.
(§4) The MTT assay was performed as previously described. Briefly, the cells were trypsinized and counted in a hemocytometer. Aliquots of 180 μl cell suspensions containing 3000 (MCF-10A) and 6000 (MCF-7, SK-BR-3, JIMT-1, L56Br-C1, and HCC1937) cells were seeded in the wells of 96-well plates. Compounds were added 24 hours after seeding to allow the attachment of cells. A concentration range between 0.1 to 100 μM was used in the MTT assays and appropriate DMSO controls. At 72 h of drug treatment, 20 μl of MTT solution (5 mg/ml MTT in PBS) was added to each well and the 96-well plates were returned to the CO2 incubator for 1 hour. The MTT-containing medium was removed. The blue formazan product formed by the reduction in live attached cells was dissolved by adding 100 μl of 100% DMSO per well after removal of the MTT-containing medium. The plates were swirled gently at room temperature for 10 minutes to dissolve the precipitate. Absorbance was monitored at 540 nm in a Labsystems iEMS Reader MF (Labsystems Oy, Helsinki, Finland) using the DeltaSoft II v.4.14 software (Biometallics Inc., Princeton, NJ, USA). Dose-response curves were drawn based on the % of the control in Excel. The IC50 was deduced from the curves.

[2] = MTT cytotoxicity dose-response assay, MCF-10A (non-cancerous); conditions: human, MCF-10A cells (normal-like breast epithelial cell line), 72 h treatment, a/b/c = one, two, three or more dose-response curves
Description: as §1, §2, §3, §4

[3] = test system: breast cancer cell lines HCC1937, JIMT-1, L56Br-C1, MCF-7, and SK-BR-3; test: MTT assay, panel of five breast cancer cell lines; conditions: for Anticancer activity / relative potency in words: breast cell lines, comparison among the tested compounds
Description: The anticancer activities of sesquiterpenes 1, 3, 6–9, 11, 12, 14, and 16 were assessed in five breast-cancer cell lines, HCC1937, JIMT-1, L56Br-C1, MCF-7, and SK-BR-3, and compared with the cytotoxicity in the breast-derived non-cancerous cell line MCF-10A using the MTT colorimetric assay. […] 16 is an unsaturated ester and differs in that respect from the other compounds, but the lower activity of 3 compared to the similar compounds was unexpected. Costunolide (1) differs from the eudesmane sesquiterpenes by having the unsaturated lactone fused with a macrocyclic system instead of a cyclohexane ring, and the tension of the lactone ring is likely to be lower in 1. […] The difference in the activities of 7 and 8 may depend on the higher lipophilicity of 8, facilitating its absorption into the cells. In 11 and 14, the presence of a second Michael acceptor function may influence the activity. […] MCF-7 has a normal wild type p53 gene, which the MCF-10A cells also have, while the others have a mutated p53.
as §3, §4

[4] = test system: HCC1937 cells; test: MTT cytotoxicity dose-response assay, HCC1937; conditions: 72 h treatment, a/b/c = one, two, three or more dose-response curves
Description: as §1, §2, §3, §4

[5] = test system: L56Br-C1 cells; test: MTT cytotoxicity dose-response assay, L56Br-C1; conditions: 72 h treatment, a/b/c = one, two, three or more dose-response curves
Description: as §1, §2, §3, §4

[6] = test system: SK-BR-3 cells; test: MTT cytotoxicity dose-response assay, SK-BR-3; conditions: 72 h treatment, a/b/c = one, two, three or more dose-response curves
Description: as §1, §2, §3, §4

[7] = test system: MCF-7 cells; test: MTT cytotoxicity dose-response assay, MCF-7; conditions: 72 h treatment, a/b/c = one, two, three or more dose-response curves
Description: as §1, §2, §3, §4

[8] = test system: MCF-10A cells; test: MTT cytotoxicity dose-response assay, MCF-10A (non-cancerous); conditions: normal-like breast epithelial cell line, 72 h treatment, a/b/c = one, two, three or more dose-response curves
Description: as §1, §2, §3, §4

Compound	IC50 ([1]; Homo sapiens, JIMT-1, 72 h) [µM]	IC50 at 72 h [2] [µM]	Anticancer activity / relative potency in words [3]	IC50 ([4]; Homo sapiens, HCC1937, 72 h) [µM]	IC50 ([5]; Homo sapiens, 72 h) [µM]	IC50 ([6]; Homo sapiens, SK-BR-3, 72 h) [µM]	IC50 ([7]; Homo sapiens, MCF7, 72 h) [µM]	IC50 [1] [µM]	IC50 [5] [µM]	IC50 ([3]; Homo sapiens, five breast cancer cell lines, read-out: IC50 values, range over the cancer cell lines) [µM]	IC50 [4] [µM]	IC50 [6] [µM]	IC50 [7] [µM]	IC50 [8] [µM]
C=C1C(=O)O[C@@H]2[C@@H]3[C@@](C)(CC[C@@H]12)[C@@H](OC(C)=O)CC[C@]3(C)O (relative stereo) [Compound 3, (+)-(3aS*,5aR*,6S*,9S*,9aS*,9bS*)-9-Hydroxy-5a,9-dimethyl-3-methylidene-2-oxododeca-hydronaphtho[1,2-b]furan-6-yl acetate]	18	38	lowest activity	23	9.3	10.1	27							
C=C1CC[C@H](OC(C)=O)[C@]2(C)CC[C@H]3C(=C)C(=O)O[C@@H]3[C@@H]12 (relative stereo) [Compound 8, (3aS*,5aR*,6S*,9aS*,9bS*)-5a-Methyl-3,9-dimethylidene-2-oxododecahydro-naphtho[1,2-b]furan-6-yl acetate]	6.3	24			8.4	4.7 ± 1.1	11 ± 1.7	7	12					
C=C1C(=O)O[C@@H]2/C=C(\C)CC/C=C(\C)CC[C@@H]12 [Compound 1, costunolide]	6.2	20	most active in all of the cell lines	2.2	3.7	2 ± 1	5.3 ± 1.4	6.3	4.8	2 to 6.2	4.2			
C=C1CC[C@@H](O)[C@]2(C)CC[C@H]3C(=C)C(=O)O[C@@H]3[C@@H]12 [Compound 6, reynosin]	8.5	17		10	11	5.2 ± 1.6	16.4 ± 7.1	12						
C=C1C(=O)OC2C1CCC1(C)C(O)CCC(=C)C21 (stereo not drawn) [Compound 7, 1-epi-reynosin]	12	22		12	9	7.6	23	14	10.1		18.5	6.4	30	
C=C1C(=O)O[C@@H]2[C@H]3C(C)=CC[C@@H](O)[C@]3(C)CC[C@@H]12 [Compound 9, santamarin]	6.9	17		8.1 ± 1.8	12.3 ± 5.5	3.1 ± 0.6	9.7 ± 0.9	7.2						
C=C1C(=O)OC2C1CCC1(C)C(=O)C=CC(C)(O)C21 (stereo not drawn) [Compound 11, 11,13-didehydrovulgarin]	10	24		4.8	3.6	4.2 ± 2.1	10.1	13			7.8		18	21
C=C1C(=O)O[C@H]2[C@H]1CCC(C)=C1[C@@H](OC(C)=O)[C@H]3O[C@@]3(C)[C@@H]12 [Compound 12, 2β-acetoxy-3α,4α-epoxy-3,4-dihydrokauniolide]	7.1			6	6	4.2 ± 1.1	7.1	10.1	10.1		7.8		8.3	
C=C1C(=O)O[C@@H]2[C@H]3C(C)=CC(=O)C3=C(C)CC[C@@H]12 [Compound 14, dehydroleucodin]	7.5	20		3	5.8	2.5 ± 0.4	3.3	8.1	10		5.2		4.3	23
C=C(C(=O)OC)C1CCC2(C)C(O)CCC(=C)C2C1O (stereo not drawn) [Compound 16, baynol C]	13	29	lowest activity	24	16	9.9 ± 3	27.4 ± 17.2	23						
COC(=O)C(N)CSCC1C(=O)OC2C1CCC1(C)C(O)CC=C(C)C21 (stereo not drawn) [Compound 21]	> 100	41	significantly less potent; also recorded: inactive or considerably less potent	100	73	51	> 100					40		
